ChEMBL document CHEMBL1201862, “PubChem BioAssay data set” (2004)
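Exposure lasted 48 hours, with cells grown in 96-well plates and compounds tested at five concentrations. GI50 is the concentration that inhibits growth by half.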 Calls of active or inactive are those of the source. Cut-off read from the data, not from the text of the source: active = GI50 up to about 1.1 µM and inactive = higher.

Tests used:
Test in all cases: NCI-60 cell line screen, 48 h
[1] = test system: 786-0
[2] = test system: A498
[3] = test system: A549
[4] = test system: EKVX
[5] = test system: HCC 2998
[6] = test system: HCT-116
[7] = test system: HCT-15
[8] = test system: HOP-62
[9] = test system: LOX IMVI
[10] = test system: OVCAR-4
[11] = test system: OVCAR-5
[12] = test system: SF-295
[13] = test system: SF-539
[14] = test system: SK-MEL-28
[15] = test system: SNB-75
[16] = test system: SW-620
[17] = test system: CCRF-CEM
[18] = test system: SF-268
[19] = test system: MCF7

Row | SMILES | GI50 [1] | GI50 [2] | GI50 [3] | GI50 [4] | GI50 [5] | GI50 [6] | GI50 [7] | GI50 [8] | GI50 [9] | GI50 [10] | GI50 [11] | GI50 [12] | GI50 [13] | GI50 [14] | GI50 [15] | GI50 [16] | GI50 [17] | GI50 [18] | GI50 [19]
1 | CCNC(=O)O/N=C1/C=C2CC[C@@H]3C(CC[C@@]4(C)C3CC[C@@H]4OC(=O)NCC)[C@@]2(C)CC1 (stereo not given in full) | 3.23 µM (inactive) | > 100 µM (inactive) | 3.98 µM (inactive) | 4.99 µM (inactive) | 4.3 µM (inactive) | 3.67 µM (inactive) | 2.77 µM | 11.4 µM (inactive) | 3.32 µM (inactive) | 2.47 µM (inactive) | 6.78 µM (inactive) | 2.41 µM (inactive) | 4.32 µM (inactive) | 3.32 µM (inactive) | 2.09 µM (inactive) | 3.02 µM (inactive) | – | – | –
2 | O=c1cccccc1NCCCCCCCNc1cccccc1=O | > 100 µM (inactive) | – | 21.8 µM (inactive) | 20.4 µM (inactive) | – | 37.2 µM (inactive) | 35.2 µM | > 100 µM (inactive) | 12.1 µM (inactive) | 27 µM (inactive) | 77.1 µM (inactive) | 34 µM (inactive) | 91.4 µM (inactive) | – | 95.9 µM (inactive) | 52 µM (inactive) | 13.4 µM (inactive) | 43.5 µM (inactive) | –
3 | N=C(N)N/N=C(/CCN1CCCC1)CC(c1ccccc1)c1c(O)c2ccccc2oc1=O (stereo not given) | > 100 µM (inactive) | – | > 100 µM (inactive) | > 100 µM (inactive) | > 100 µM (inactive) | > 100 µM (inactive) | – | > 100 µM (inactive) | > 100 µM (inactive) | > 100 µM (inactive) | – | > 100 µM (inactive) | > 100 µM (inactive) | > 100 µM (inactive) | > 100 µM (inactive) | > 100 µM (inactive) | > 10 µM (inactive) | > 100 µM (inactive) | –
4 | C=CCNC(=S)N1c2ccccc2NC(=O)CC1C (stereo not given) | > 100 µM (inactive) | – | > 100 µM (inactive) | > 100 µM (inactive) | – | > 100 µM (inactive) | > 100 µM | > 100 µM (inactive) | > 100 µM (inactive) | > 100 µM (inactive) | > 100 µM (inactive) | > 100 µM (inactive) | > 100 µM (inactive) | > 100 µM (inactive) | 54.6 µM (inactive) | > 100 µM (inactive) | > 100 µM (inactive) | > 100 µM (inactive) | –
5 | CCOc1c(Cc2ccccc2)c(=O)n2c3ccccc3n3c(=O)n(C)c(=O)c1c23 | > 100 µM (inactive) | > 100 µM (inactive) | > 100 µM (inactive) | > 100 µM (inactive) | > 100 µM (inactive) | > 100 µM (inactive) | > 100 µM | > 100 µM (inactive) | > 100 µM (inactive) | > 100 µM (inactive) | > 100 µM (inactive) | 59.6 µM (inactive) | > 100 µM (inactive) | > 100 µM (inactive) | 27.2 µM (inactive) | > 100 µM (inactive) | – | > 100 µM (inactive) | –
6 | O=c1oc2c3ccc4ccccc4c3n(CCN3CCCCC3)c2c2ccccc12 | 10.3 µM (inactive) | – | 15.6 µM (inactive) | > 87.5 µM (inactive) | 80.5 µM (inactive) | 31.8 µM (inactive) | 38.2 µM | 21.3 µM (inactive) | 31.1 µM (inactive) | 23.8 µM (inactive) | > 100 µM (inactive) | 16.8 µM (inactive) | 17.1 µM (inactive) | > 71.6 µM (inactive) | 4.98 µM (inactive) | 18.8 µM (inactive) | 9.35 µM (inactive) | 31.4 µM (inactive) | –
7 | OC[C@@H]1CC#C/C=C\C#CC[C@@H]1CO | > 100 µM (inactive) | – | – | > 100 µM (inactive) | > 100 µM (inactive) | > 100 µM (inactive) | > 100 µM | > 100 µM (inactive) | – | > 100 µM (inactive) | > 100 µM (inactive) | > 100 µM (inactive) | > 100 µM (inactive) | > 100 µM (inactive) | – | – | – | < 0.01 µM (active) | –
8 | CCOC(=O)/C(=C/c1ccc(OC)c(OC)c1)C(=O)c1ccccc1 | > 100 µM (inactive) | 22.3 µM (inactive) | 28.2 µM (inactive) | 25.8 µM (inactive) | 18.3 µM (inactive) | – | 15.1 µM | 19.5 µM (inactive) | – | 21.4 µM (inactive) | 17.5 µM (inactive) | 21.2 µM (inactive) | – | 13.5 µM (inactive) | 12.4 µM (inactive) | 19.4 µM (inactive) | 9.64 µM (inactive) | 14.8 µM (inactive) | –
9 | Cc1ccc(Oc2ccccc2N)cc1 | 21.2 µM (inactive) | > 100 µM (inactive) | 36.9 µM (inactive) | 37.5 µM (inactive) | 15.4 µM (inactive) | 9.51 µM (inactive) | 19.5 µM | 39 µM (inactive) | 23 µM (inactive) | 50.9 µM (inactive) | 40.6 µM (inactive) | 37.6 µM (inactive) | 16.7 µM (inactive) | 18.2 µM (inactive) | 16 µM (inactive) | 45.9 µM (inactive) | 7.03 µM (inactive) | 46.1 µM (inactive) | –
10 | CN(C)CC1CCCC/C1=N/OC(=O)c1ccc(Cl)cc1 (stereo not given) | > 100 µM (inactive) | > 100 µM (inactive) | > 100 µM (inactive) | > 100 µM (inactive) | > 100 µM (inactive) | > 100 µM (inactive) | > 100 µM | > 100 µM (inactive) | > 100 µM (inactive) | > 100 µM (inactive) | > 100 µM (inactive) | > 100 µM (inactive) | > 100 µM (inactive) | > 100 µM (inactive) | > 100 µM (inactive) | > 100 µM (inactive) | > 100 µM (inactive) | > 100 µM (inactive) | –
11 | CC1C(=O)N(C)C2(CO)C(=O)O[C@H](C)C12O (stereo not given in full) | > 100 µM (inactive) | – | > 100 µM (inactive) | > 100 µM (inactive) | > 100 µM (inactive) | > 100 µM (inactive) | > 100 µM | > 100 µM (inactive) | – | > 100 µM (inactive) | > 100 µM (inactive) | 28.1 µM (inactive) | > 100 µM (inactive) | > 100 µM (inactive) | – | – | – | > 100 µM (inactive) | –
12 | Cc1[nH]c2ccccc2c1CC/C(=N\Nc1ccccc1)c1ccccc1 | > 100 µM (inactive) | > 100 µM (inactive) | > 100 µM (inactive) | > 100 µM (inactive) | > 100 µM (inactive) | > 100 µM (inactive) | > 100 µM | > 100 µM (inactive) | – | > 100 µM (inactive) | > 100 µM (inactive) | 94.6 µM (inactive) | > 100 µM (inactive) | > 100 µM (inactive) | 28.7 µM (inactive) | > 100 µM (inactive) | > 100 µM (inactive) | – | –
13 | Cn1c(=O)c2nc(-c3ccc(Cl)cc3)oc2n(C)c1=O | > 100 µM (inactive) | > 100 µM (inactive) | > 100 µM (inactive) | > 100 µM (inactive) | > 100 µM (inactive) | > 100 µM (inactive) | > 100 µM | – | > 100 µM (inactive) | > 100 µM (inactive) | > 100 µM (inactive) | > 100 µM (inactive) | > 100 µM (inactive) | > 100 µM (inactive) | > 100 µM (inactive) | > 100 µM (inactive) | > 100 µM (inactive) | > 100 µM (inactive) | –
14 | Cc1ccc(S(=O)OC2c3ccccc3Cc3ccccc32)cc1 (stereo not given) | 21.7 µM (inactive) | 21.9 µM (inactive) | 27.3 µM (inactive) | 18.6 µM (inactive) | 19.1 µM (inactive) | 17.1 µM (inactive) | 19.9 µM | 17.5 µM (inactive) | 14.4 µM (inactive) | 17.8 µM (inactive) | 15.6 µM (inactive) | 23.9 µM (inactive) | 18.5 µM (inactive) | 19.2 µM (inactive) | 17.9 µM (inactive) | 22.5 µM (inactive) | – | 20.7 µM (inactive) | –
15 | CCOC(=O)[C@@H]1ON2O[C@@H](OC3CCCCC3c3ccccc3)C[C@H]3OC(=O)[C@@H]1C32 (stereo not given in full) | > 100 µM (inactive) | > 100 µM (inactive) | 80.7 µM (inactive) | > 100 µM (inactive) | 66.7 µM (inactive) | > 100 µM (inactive) | > 100 µM | > 100 µM (inactive) | > 100 µM (inactive) | – | > 100 µM (inactive) | > 100 µM (inactive) | > 100 µM (inactive) | – | > 100 µM (inactive) | > 100 µM (inactive) | 0.792 µM (active) | > 100 µM (inactive) | > 100 µM (inactive)
16 | C/N=C(\SC)N(C)c1nc(=[N+](C)C)ss1.[O-][Cl+3]([O-])([O-])[O-] | > 100 µM (inactive) | 4.61 µM (inactive) | > 100 µM (inactive) | 45.3 µM (inactive) | > 100 µM (inactive) | > 100 µM (inactive) | > 100 µM | > 100 µM (inactive) | > 100 µM (inactive) | – | > 100 µM (inactive) | > 100 µM (inactive) | – | > 100 µM (inactive) | 3.81 µM (inactive) | 31.6 µM (inactive) | 4.17 µM (inactive) | > 100 µM (inactive) | –
17 | COC(=O)NN1C(C)=C(C(=O)OC)C2(C#N)C(C(=O)OC)=C(C)N(NC(=O)OC)C12N (stereo not given) | > 100 µM (inactive) | > 100 µM (inactive) | > 100 µM (inactive) | > 100 µM (inactive) | > 100 µM (inactive) | > 100 µM (inactive) | > 100 µM | > 100 µM (inactive) | > 100 µM (inactive) | > 100 µM (inactive) | > 100 µM (inactive) | – | > 100 µM (inactive) | > 100 µM (inactive) | – | > 100 µM (inactive) | > 100 µM (inactive) | > 100 µM (inactive) | –
18 | C#CC[C@]12CC(=O)CC[C@H]1CC(=O)C2 | > 100 µM (inactive) | > 100 µM (inactive) | > 100 µM (inactive) | – | > 100 µM (inactive) | > 100 µM (inactive) | > 100 µM | > 100 µM (inactive) | – | > 100 µM (inactive) | – | – | > 100 µM (inactive) | > 100 µM (inactive) | > 100 µM (inactive) | > 100 µM (inactive) | > 100 µM (inactive) | > 100 µM (inactive) | –
